Values of other authors as cited in US8685449B2, “Pharmaceutical composition with anti-obesity activity comprising a premixture of pure orlistat and preparation process” (Laboratorios Bago S.A., priority 2010, dated 2014).

Details: particularly in a wet environment and at a temperature above 35° C., and inclusive in a dry environment

In the case of `CCCCCCCCCCC[C@@H](C[C@@H]1OC(=O)[C@H]1CCCCCC)OC(=O)[C@H](CC(C)C)NC=O` [orlistat, (−) tetrahydrolipstatin], the “stability (hydrolisis and thermal degradation)” value is listed as “susceptible to hydrolisis and thermal degradation”.
